Consider one compound from patent US20260060964A1, “METHODS AND COMPOSITIONS FOR TREATING SEPSIS” (Antivirus Therapeutics, priority 2021, published 2026).

The structures appear in SMILES notation. Where only a bound is given, the exact number is not on record here.

In one data set the test system is enterovirus. Put plainly: virological efficacy: EV culture and PCR in neonates with suspected enterovirus sepsis, placebo-controlled study. Format: in vivo, human. From the text: (§1) Sixty-one subjects were enrolled; 43 randomized to the treatment group and 18 to the placebo group (FIG. 1). Of these, 43 (70%) were confirmed EV-positive: 31 in the treatment group and 12 in the placebo group. The study was terminated prior to full accrual due to expiration of study drug. […] 8/18 (44%) in the placebo group and lost-to-follow-up in 9/43 (21%) subjects in the treatment group v. 1/18 (6%) in the placebo group. Neonates with suspected EV sepsis (hepatitis, coagulopathy, and/or myocarditis) were enrolled at 19 centers from June 1999-December 2010.
(§2) A 2:1 study drug: placebo randomization with randomly permuted block sizes was used. Randomization codes were accessible only to biostatistical personnel at the coordinating center. Subjects initially received 5.0 mg/kg/dose of a 40 mg/mL liquid formulation of pleconaril (ViroPharma, Inc.; Exton, PA) or matching placebo identical in composition except lacking active study drug. The liquid formulation expired on May 31, 2002, after which the formulation was changed by the manufacturer to a 40 mg/mL suspension. Subjects received 8.5 mg/kg/dose of pleconaril suspension (shown to provide similar drug exposure as 5.0 mg/kg/dose of pleconaril liquid) or matching placebo. Both pleconaril formulations and matching placebos were administered every 8 hours×7 days in 1.0 mL of breast milk or formula by mouth or orogastric tube and were given to subjects who were otherwise NPO. Subjects were permitted to receive antibiotics, acyclovir, cardiotropic medications, and IVIG. Subjects for whom an etiology for illness other than EV infection was documented after enrollment had study drug/placebo discontinued.
(§3) A target sample size of 45 subjects with confirmed EV disease, with an expectation that approximately 67% of enrolled subjects would be confirmed to be EV-infected, was chosen to provide sufficient power to detect a reduction in viral shedding from the oropharynx from 96% to 70% on day 5. EV-confirmed subjects (culture- or PCR-positive) were included in virologic and clinical efficacy analyses, all enrolled subjects were included in safety analyses, and pleconaril recipients for whom pharmacokinetic data were obtained (whether or not EV-infected) were included in pharmacokinetic analyses. Survival analyses were conducted on the total enrolled cohort and on EV-confirmed subjects.
(§4) Fisher's Exact Test was utilized for comparisons of categorical factors and the Kruskal-Wallis and Mann Whitney Tests for continuous factors, with medians and ranges presented. Kaplan-Meier curves and log-rank statistics were utilized to assess differences in duration of culture and PCR positivity and survival between study groups. Changes in toxicity grades from baseline and adverse event rates were compared by chi-square tests.
Specimens for EV culture and polymerase chain reaction (PCR) were obtained from the oropharynx, rectum, urine, and serum on days 1-5, 7, 10, and 14. Plasma for pharmacokinetic analysis was obtained on day 1 (2, 4, and 8 hours after study drug administration) and days 3 and 7 (prior to and 2 and 4 hours after administration). Hematology and chemistry tests were obtained on study days 1, 3, 5, 7, 10, and 14 and urinalyses on days 1 and 7. Persisting abnormalities were followed at visits at 2, 6, 12, 18, and 24 months. Adverse events were recorded at each evaluation, and relationship to study treatment was determined by site investigators.
The primary endpoint was the percentage of patients with a positive viral culture from the oropharynx five days after beginning study drug. Secondary endpoints included duration of culture positivity from oropharynx, rectum, urine and serum; changes in laboratory values reflecting resolution or progression of EV disease or drug toxicity; duration of hospitalization; time to resolution of organ abnormalities; survival; and pleconaril pharmacokinetics. […]

Data set [1] concerns neonatal enterovirus infections. Put plainly: clinical efficacy: survival of neonates with suspected enterovirus sepsis, placebo-controlled study. Format: in vivo, human.
Excerpt: as §1, §2, §3, §4
The primary endpoint was the percentage of patients with a positive viral culture from the oropharynx five days after beginning study drug. Secondary endpoints included duration of culture positivity from oropharynx, rectum, urine and serum; changes in laboratory values reflecting resolution or progression of EV disease or drug toxicity; duration of hospitalization; time to resolution of organ abnormalities; survival; and pleconaril pharmacokinetics. Tertiary endpoints included duration of blood product (fresh frozen plasma, packed red blood cells, platelets, other products) and inotropic support.

Data set [2] is described as follows: safety analysis: adverse events in enrolled neonates. The class given is in vivo, human. On the procedure: as §2, with “discontinued. […]” for “discontinued.”
(§5) Specimens for EV culture and polymerase chain reaction (PCR) were obtained from the oropharynx, rectum, urine, and serum on days 1-5, 7, 10, and 14. […] Adverse events were recorded at each evaluation, and relationship to study treatment was determined by site investigators.

Data set [3] can be described thus: plasma pharmacokinetics in neonates. Conditions: on D1. Format: in vivo, human. The protocol:
as §2, with “discontinued. […]” for “discontinued.”
as §5

For data set [4] the following is noted: 25° C.; cited from earlier work.
Another data set has as its system CYP 3A. Conditions: oral delivery at 200-400 mg dose level; cited from earlier work.
Data set [5] deals with human respiratory picornavirus. Conditions: nasal thixotropic formulation, 12 mg per day nasal spray v. 400 mg oral dose; cited from earlier work.

On to `Cc1cc(CCCOc2c(C)cc(-c3noc(C(F)(F)F)n3)cc2C)on1` [Pleconaril, 3-{3,5-dimethyl-4-[3-(3-methylisoxazol-5-yl)propoxy]phenyl}-5-(trifluoromethyl)-1,2,4-oxadiazole], for which the “EV-confirmed subjects culture-positive from the oropharynx” value in the data set on enterovirus (day 1, treatment group, 6 of 24) turned out to be 25%. For the same compound, the “subjects shedding cultivable virus from the oropharynx” value in the data set with enterovirus (day 5 (primary endpoint)) is “no subjects”. Further, the “persistence of PCR positivity from OP, compared with placebo” value in the data set on enterovirus (oropharynx, pleconaril group v. placebo) was “shorter”. Besides, the “time to culture negativity of all sites combined, compared with placebo” value in the data set with enterovirus (pleconaril group v. placebo) is given as “shorter”. The “median time to culture-negativity from all sites among culture-positive subjects” value in the data set on enterovirus (treatment group (19 subjects) v. 7.0 days placebo, p=0.08) amounted to 4.0 days. Also, the “median time to sustained culture-negativity, urine” value in the data set on enterovirus (treatment group v. 7.0 days placebo, p=0.05) is recorded as 4.0 days. Further, the “median time to sustained oropharyngeal culture negativity” value in the data set with enterovirus (treatment group, placebo also 3.0) is recorded as 3.0 days. Further, the “cumulative survival v. placebo, EV-confirmed subjects” value in data set [1] (over two months) is listed as “trends in cumulative survival favoring the treatment group”. In addition, the “cumulative survival over two months v. placebo, all enrolled subjects” value in data set [1] (p=0.02) was “greater”. Further, in data set [1] (p=0.07 among all subjects, p=0.23 among EV-confirmed subjects), the “cumulative survival over 18 months v. placebo” value was “continued to exceed”. Besides, the “subjects who died, EV-confirmed subjects” value in data set [1] (treatment group 7/31 v. placebo 5/12 (42%)) was 23%. Further, in data set [1] (treatment group 10/43 v. placebo 8/18 (44%)), the “subjects who died, all enrolled subjects” value is given as 23%. In addition, the “subjects with adverse events whose events were judged possibly/probably treatment-related” value in data set [2] (treatment group v. 18% placebo) is reported as 3%. The “enrolled subjects who experienced adverse events” value in data set [2] (treatment group v. 94% placebo) was “Eighty-six”. The “share with concentrations below IC90” value in data set [3] was determined as 41%. Also, in data set [4], the solubility in water is less than 0.02 µg/mL. Besides, the “induction of CYP 3A (side effect)” value in the data set on CYP 3A is reported as “induction of CYP 3A”. The “clinical/antiviral effect of nasal spray compared with oral dose” value in data set [5] is reported as “roughly similar clinical/antiviral effect”.
